Assays:
[1] = system: Pu22T14T23 (DNA, G4) TGAGGGTGGGTAGGGTGGGTAA; assay: 1H NMR titration and NOESY; settings: 70 mM KCl
[2] = system: d(CGTACG)2 ("CG") (DNA, duplex) CGTACG; assay: 1H and 31P NMR titration; settings: 0.1 M NaCl; 10 mM sodium phosphate pH 7.0, 15 °C; partial intercalation
[3] = system: d(AAGAATTCTT)2 ("AATT") (DNA, duplex) AAGAATTCTT; assay: 1H and 31P NMR titration; settings: 0.1 M NaCl; 10 mM sodium phosphate pH 7.0, 15 °C; external interaction, no intercalation
[4] = system: d(TTAGGGT)4 (DNA, G4) TTAGGGT; assay: 1H NMR titration and NOESY; settings: 150 mM KCl; 25 mM K-phosphate pH 6.7, 1 mM EDTA, 25 °C; sites A3-G4 and over G6
[5] = system: Pu22T14T23 (DNA, G4) TGAGGGTGGGTAGGGTGGGTAA; assay: ligand fluorescence titration, EQUISPEC fit; settings: 3 µM ligand, 1:1 model
[6] = system: d(TTAGGGT)4 (DNA, G4) TTAGGGT; assay: ligand fluorescence titration, EQUISPEC fit; settings: 3 µM ligand, 1:1 model
[7] = system: Pu22T14T23 (DNA, G4) TGAGGGTGGGTAGGGTGGGTAA; assay: reverse fluorescence titration (DNA titrated with ligand), EQUISPEC fit; settings: 70 mM KCl; 25 mM phosphate pH 6.9, 20 °C; 2.4 µM DNA; overall constant of 1:2 model
[8] = 70 mM KCl, 25 mM phosphate pH 6.9, 20 °C

## C[C@]1(c2nc3c(C(N)=O)cccc3[nH]2)CCCN1
[1]; 25 mM KH2PO4 pH 6.9, 25 °C, no shift change, no NOE
  binding: no

## NC(=O)Cn1ccc2ccc(-c3ccc(CN4CCCC4)cc3)nc21
[2]
  binding: weak
[3]
  binding: weak
[1]; 25 mM phosphate pH 6.9, 25 °C, stacks on 5' and 3' end tetrads
  binding: yes
[4]
  binding: yes
[5]; [8]
  Kb: ~ 10^6.1 M^-1
[5]; PBS (Na+; composition not given), PBS, 20 °C, stated similar to K+ buffer
  binding: yes
[6]; [8]
  Kb: ~ 10^6.1 M^-1
[6]; PBS (Na+; composition not given), PBS, 20 °C, printed as d(TTAGGG)4
  Kb: ~ 10^5.1 M^-1
[7]
  overall Kb: 10^12.8 M^-2
